Experimental data from patent US20250179013A1, “INHIBITORS OF RNA HELICASE DHX9 AND USES THEREOF” (ACCENT THERAPEUTICS, INC., priority 2022, published 2025).

Target: T1, Human recombinant DHX9 protein (Homo sapiens, UniProt Q08211)
T1 construct: purchased Viva
Test: DHX9 ATPase assay (ADP-Glo biochemical assay)
Details: for DHX9 Biochemical Max Inhibition: maximum inhibition in ATPase assay, 10 μM Aurintricarboxylic acid = 100%; for IC50: read-out: DHX9 Biochemical Inflection Point

T1 sequence (Q08211 whole entry): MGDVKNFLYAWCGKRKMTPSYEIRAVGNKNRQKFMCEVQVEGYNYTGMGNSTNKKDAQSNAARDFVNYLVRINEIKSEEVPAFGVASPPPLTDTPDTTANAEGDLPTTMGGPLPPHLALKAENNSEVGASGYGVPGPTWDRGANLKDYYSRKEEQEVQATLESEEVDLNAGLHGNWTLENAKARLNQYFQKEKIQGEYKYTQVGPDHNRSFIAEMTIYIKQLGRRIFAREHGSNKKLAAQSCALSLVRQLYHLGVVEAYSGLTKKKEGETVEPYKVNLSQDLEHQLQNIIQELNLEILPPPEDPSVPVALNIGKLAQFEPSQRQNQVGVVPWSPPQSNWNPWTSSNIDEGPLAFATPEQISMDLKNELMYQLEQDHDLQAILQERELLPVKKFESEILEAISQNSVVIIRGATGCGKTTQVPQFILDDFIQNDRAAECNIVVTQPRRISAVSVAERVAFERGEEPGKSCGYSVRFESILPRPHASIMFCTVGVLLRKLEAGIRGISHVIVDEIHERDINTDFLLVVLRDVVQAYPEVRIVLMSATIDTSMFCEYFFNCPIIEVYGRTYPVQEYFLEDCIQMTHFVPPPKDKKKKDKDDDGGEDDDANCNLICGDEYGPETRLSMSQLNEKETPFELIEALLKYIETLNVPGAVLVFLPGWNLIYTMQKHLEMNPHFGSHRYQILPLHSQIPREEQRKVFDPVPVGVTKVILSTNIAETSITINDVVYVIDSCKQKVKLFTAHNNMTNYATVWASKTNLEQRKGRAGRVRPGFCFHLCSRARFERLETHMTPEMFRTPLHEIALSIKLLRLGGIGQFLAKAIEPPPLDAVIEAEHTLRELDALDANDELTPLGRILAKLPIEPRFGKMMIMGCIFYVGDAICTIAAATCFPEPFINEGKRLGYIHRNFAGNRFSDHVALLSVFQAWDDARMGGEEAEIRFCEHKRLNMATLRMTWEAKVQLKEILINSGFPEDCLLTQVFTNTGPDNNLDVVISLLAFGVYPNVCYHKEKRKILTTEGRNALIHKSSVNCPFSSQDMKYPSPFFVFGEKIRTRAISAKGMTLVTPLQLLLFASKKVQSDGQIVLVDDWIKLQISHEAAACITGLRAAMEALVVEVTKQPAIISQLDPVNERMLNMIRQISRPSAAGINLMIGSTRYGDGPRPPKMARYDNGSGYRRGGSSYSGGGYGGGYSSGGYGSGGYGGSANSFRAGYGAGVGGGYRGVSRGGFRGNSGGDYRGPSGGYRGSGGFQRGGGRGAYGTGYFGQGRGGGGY

`CS(=O)(=O)Nc1cccc(NC(=O)c2cc(-c3ccccc3)ccn2)c1` [Example 2] was tested, and the “DHX9 Biochemical Max Inhibition” value was 50.4% and the IC50 was 7270 nM.

`CS(=O)(=O)Nc1cccc(NC(=O)c2ccc(OCc3ccccc3)cc2)c1` [Example 3] was tested, and the “DHX9 Biochemical Max Inhibition” value was 44.3% and the IC50 was 1230 nM.

In the case of `CS(=O)(=O)Nc1cccc(NC(=O)c2cccc(OCc3ccccc3)c2)c1` [Example 4], the “DHX9 Biochemical Max Inhibition” value is reported as 55.1% and the IC50 is reported as 3050 nM.

`CS(=O)(=O)Nc1cccc(NC(=O)c2ccc(-c3ccccc3)s2)c1` [Example 5] was tested, and the “DHX9 Biochemical Max Inhibition” value was 37.7% and the IC50 was 2970 nM.

In the case of `Cc1nc(-c2cc(C(=O)Nc3cccc(NS(C)(=O)=O)c3)co2)cs1` [Example 7], the “DHX9 Biochemical Max Inhibition” value is reported as 73.3% and the IC50 is reported as 804 nM.

With `Cc1ccccc1-c1nc(C(=O)Nc2cccc(NS(C)(=O)=O)c2)cs1` [Example 8] the “DHX9 Biochemical Max Inhibition” value was 47.7% and the IC50 was 1760 nM.

`CS(=O)(=O)Nc1cccc(NC(=O)c2ccccc2N2CCCCC2)c1` [Example 9] was tested, and the “DHX9 Biochemical Max Inhibition” value was 48.3% and the IC50 was 3940 nM.

With `Cc1ccc(Nc2cccc(C(=O)Nc3cccc(NS(C)(=O)=O)c3)c2)nn1` [Example 10] the “DHX9 Biochemical Max Inhibition” value was 79.8% and the IC50 was 1540 nM.

For `Cc1nnc(-c2ccc(C(=O)Nc3cccc(NS(C)(=O)=O)c3)cc2)o1` [Example 11], the “DHX9 Biochemical Max Inhibition” value was 47.5% and the IC50 was 5650 nM.

`CS(=O)(=O)Nc1cccc(NC(=O)c2csc(NC3CC3)n2)c1` [Example 13] was tested, and the “DHX9 Biochemical Max Inhibition” value was 52.5% and the IC50 was 2390 nM.

For `CS(=O)(=O)Nc1cccc(NC(=O)c2ccc(C(=O)NC3CC3)cc2)c1` [Example 14], the “DHX9 Biochemical Max Inhibition” value was 70.4% and the IC50 was 5090 nM.

With `Cc1cc(C(=O)Nc2cccc(NS(C)(=O)=O)c2)nn1C1CCOCC1` [Example 17] the “DHX9 Biochemical Max Inhibition” value was 50.7% and the IC50 was 2540 nM.

`CCn1ncc(C(=O)Nc2cccc(NS(C)(=O)=O)c2)c1C1CC1` [Example 18] was tested, and the “DHX9 Biochemical Max Inhibition” value was 58.6% and the IC50 was 92400 nM.

In the case of `CS(=O)(=O)Nc1cccc(NC(=O)c2csc(N3CCCCC3)n2)c1` [Example 19], the “DHX9 Biochemical Max Inhibition” value is reported as 49.6% and the IC50 is reported as 6330 nM.

With `CS(=O)(=O)Nc1cccc(NC(=O)c2ccc(-c3nnn[nH]3)cc2)c1` [Example 21] the “DHX9 Biochemical Max Inhibition” value was 72.4% and the IC50 was 3850 nM.

With `Cc1nc(COc2ccc(C(=O)Nc3cccc(NS(C)(=O)=O)c3)cc2)cs1` [Example 22] the “DHX9 Biochemical Max Inhibition” value was 71.7% and the IC50 was 1220 nM.

For `CS(=O)(=O)Nc1cccc(NC(=O)c2ccc(-n3cccc3)cc2)c1` [Example 23], the “DHX9 Biochemical Max Inhibition” value was 51.4% and the IC50 was 943 nM.

For `CS(=O)(=O)Nc1cccc(NC(=O)c2csc(-c3ccc(F)cc3)n2)c1` [Example 24], the “DHX9 Biochemical Max Inhibition” value was 62.5% and the IC50 was 1040 nM.

In the case of `Cc1cc(C(=O)Nc2cccc(NS(C)(=O)=O)c2)c(C)n1C1CC1` [Example 25], the “DHX9 Biochemical Max Inhibition” value is reported as 67.1% and the IC50 is reported as 2320 nM.

In the case of `Cc1ccc(C)n1-c1sccc1C(=O)Nc1cccc(NS(C)(=O)=O)c1` [Example 26], the “DHX9 Biochemical Max Inhibition” value is reported as 60.6% and the IC50 is reported as 56900 nM.

With `CS(=O)(=O)Nc1cccc(NC(=O)c2ccc(S(=O)(=O)Nc3ccncc3)cc2)c1` [Example 27] the “DHX9 Biochemical Max Inhibition” value was 63.8% and the IC50 was 1610 nM.

`CS(=O)(=O)Nc1cccc(NC(=O)c2cccc(OCc3cccs3)c2)c1` [Example 28] was tested, and the “DHX9 Biochemical Max Inhibition” value was 76.4% and the IC50 was 4080 nM.

`Cn1nc(C(=O)Nc2cccc(NS(C)(=O)=O)c2)cc1C1CCCC1` [Example 29] was tested, and the “DHX9 Biochemical Max Inhibition” value was 81.3% and the IC50 was 1430 nM.

For `CS(=O)(=O)Nc1cccc(NC(=O)c2csc(S(=O)(=O)N3CCOCC3)c2)c1` [Example 30], the “DHX9 Biochemical Max Inhibition” value was 69.1% and the IC50 was 34100 nM.

For `CS(=O)(=O)Nc1cccc(NC(=O)c2csc(C3CC3)n2)c1` [Example 32], the “DHX9 Biochemical Max Inhibition” value was 67.9% and the IC50 was 5770 nM.

With `Cc1cc(C)n(Cc2ccc(C(=O)Nc3cccc(NS(C)(=O)=O)c3)o2)n1` [Example 34] the “DHX9 Biochemical Max Inhibition” value was 70.4% and the IC50 was 4850 nM.

For `CS(=O)(=O)Nc1cccc(NC(=O)c2cnn(Cc3ccccc3)c2)c1` [Example 35, 1-benzyl-N-(3-methanesulfonamidophenyl)pyrazole-4-carboxamide], the “DHX9 Biochemical Max Inhibition” value was 69.3% and the IC50 was 1490 nM.

With `CS(=O)(=O)Nc1cccc(NC(=O)c2cc(-c3ccccc3)[nH]n2)c1` [Example 36] the “DHX9 Biochemical Max Inhibition” value was 56.3% and the IC50 was 1860 nM.

In the case of `CS(=O)(=O)Nc1cccc(NC(=O)c2cccc(-c3ccccc3)c2)c1` [Example 37], the “DHX9 Biochemical Max Inhibition” value is reported as 67% and the IC50 is reported as 1720 nM.

With `CS(=O)(=O)Nc1cccc(NC(=O)c2ccc(-c3ccccc3)cc2)c1` [Example 38] the “DHX9 Biochemical Max Inhibition” value was 38.6% and the IC50 was 345 nM.

For `CS(=O)(=O)Nc1cccc(NC(=O)c2ccc(-n3cccn3)cc2)c1` [Example 39], the “DHX9 Biochemical Max Inhibition” value was 55.3% and the IC50 was 994 nM.

For `CS(=O)(=O)Nc1cccc(NC(=O)c2nc(-c3ccccc3)cs2)c1` [Example 42], the “DHX9 Biochemical Max Inhibition” value was 71.4% and the IC50 was 544 nM.

`CS(=O)(=O)Nc1cccc(NC(=O)c2cnn(-c3ncccn3)c2)c1` [Example 43] was tested, and the “DHX9 Biochemical Max Inhibition” value was 68.7% and the IC50 was 373 nM.

With `Cc1ccccc1-c1csc(C(=O)Nc2cccc(NS(C)(=O)=O)c2)c1` [Example 46] the “DHX9 Biochemical Max Inhibition” value was 73.9% and the IC50 was 123 nM.

With `Cc1cccc(-c2csc(C(=O)Nc3cccc(NS(C)(=O)=O)c3)c2)c1` [Example 47] the “DHX9 Biochemical Max Inhibition” value was 67.7% and the IC50 was 264 nM.

`Cc1ccc(-c2csc(C(=O)Nc3cccc(NS(C)(=O)=O)c3)c2)cc1` [Example 48] was tested, and the “DHX9 Biochemical Max Inhibition” value was 67.5% and the IC50 was 105 nM.

With `CS(=O)(=O)Nc1cccc(NC(=O)c2cc(-c3ccc(O)cc3)[nH]n2)c1` [Example 64] the “DHX9 Biochemical Max Inhibition” value was 78.1% and the IC50 was 589 nM.

With `COc1cccc(-c2csc(C(=O)Nc3cccc(NS(C)(=O)=O)c3)c2)c1C` [Example 67] the “DHX9 Biochemical Max Inhibition” value was 70.1% and the IC50 was 980 nM.

`COc1ccc(C)c(-c2csc(C(=O)Nc3cccc(NS(C)(=O)=O)c3)c2)c1` [Example 68] was tested, and the “DHX9 Biochemical Max Inhibition” value was 70.3%.

For `CS(=O)(=O)Nc1cccc(NC(=O)c2cc(Cc3ccccc3)cs2)c1` [Example 71], the “DHX9 Biochemical Max Inhibition” value was 66.5% and the IC50 was 1860 nM.

In the case of `COc1ccc(-c2cc(C(=O)Nc3cccc(NS(C)(=O)=O)c3)n[nH]2)cc1` [Example 78], the “DHX9 Biochemical Max Inhibition” value is reported as 61.5% and the IC50 is reported as 698 nM.

For `CS(=O)(=O)Nc1cccc(NC(=O)c2cc(-c3ccccc3)c(Br)s2)c1` [Example 98, 5-bromo-N-(3-(methylsulfonamido)phenyl)-4-phenylthiophene-2-carboxamide], the “DHX9 Biochemical Max Inhibition” value was 77.7% and the IC50 was 543 nM.

In the case of `CS(=O)(=O)Nc1cccc(NC(=O)c2cc(-c3ccccc3)c(C(=O)O)s2)c1` [Example 101, 5-[(3-methanesulfonamidophenyl)carbamoyl]-3-phenylthiophene-2-carboxylic acid], the “DHX9 Biochemical Max Inhibition” value is reported as 79.1% and the IC50 is reported as 54 nM.

With `CS(=O)(=O)Nc1cccc(NC(=O)c2cc(C(=O)NCCc3cccnc3)cs2)c1` [Example 103] the “DHX9 Biochemical Max Inhibition” value was 71.7% and the IC50 was 126 nM.

In the case of `Cc1ccc(NC(=O)c2csc(C(=O)Nc3cccc(NS(C)(=O)=O)c3)c2)cc1Cl` [Example 104], the “DHX9 Biochemical Max Inhibition” value is reported as 67.3% and the IC50 is reported as 504 nM.

`CS(=O)(=O)Nc1cccc(NC(=O)c2cc(C(=O)NCC3(O)CCCCC3)cs2)c1` [Example 105] was tested, and the “DHX9 Biochemical Max Inhibition” value was 70.3% and the IC50 was 210 nM.

In the case of `COc1ccc(NC(=O)c2csc(C(=O)Nc3cccc(NS(C)(=O)=O)c3)c2)cn1` [Example 106], the “DHX9 Biochemical Max Inhibition” value is reported as 72.3% and the IC50 is reported as 67.9 nM.

For `Cc1c(NC(=O)c2csc(C(=O)Nc3cccc(NS(C)(=O)=O)c3)c2)c(=O)n(-c2ccccc2)n1C` [Example 107], the “DHX9 Biochemical Max Inhibition” value was 74.6% and the IC50 was 168 nM.

With `CS(=O)(=O)Nc1cccc(NC(=O)c2cc(C(=O)Nc3ccc(OC(F)(F)F)cc3)cs2)c1` [Example 108] the “DHX9 Biochemical Max Inhibition” value was 64.4% and the IC50 was 708 nM.

`CC(NC(=O)c1csc(C(=O)Nc2cccc(NS(C)(=O)=O)c2)c1)c1ccccc1` (stereo not drawn) [Example 110] was tested, and the “DHX9 Biochemical Max Inhibition” value was 68.9% and the IC50 was 81.9 nM.

In the case of `CS(=O)(=O)Nc1cccc(NC(=O)c2cc(C(=O)NC3Cc4ccccc4C3)cs2)c1` [Example 112], the “DHX9 Biochemical Max Inhibition” value is reported as 68.9% and the IC50 is reported as 101 nM.

For `Cc1cc(NC(=O)c2csc(C(=O)Nc3cccc(NS(C)(=O)=O)c3)c2)ccc1Cl` [Example 113], the “DHX9 Biochemical Max Inhibition” value was 59.7% and the IC50 was 515 nM.

In the case of `CN(C)C(=O)c1ccc(NC(=O)c2csc(C(=O)Nc3cccc(NS(C)(=O)=O)c3)c2)cc1` [Example 114], the “DHX9 Biochemical Max Inhibition” value is reported as 73.5% and the IC50 is reported as 71.4 nM.
